Results taken from patent publication US8858994B2, “Pharmaceutical formulation comprising ezetimibe” (Ratiopharm GmbH, priority 2007, dated 2014).

How the values were obtained:
Format in all cases: physicochemical
[1] = Particle size determination according to Dry Powder Method (Malvern Master sizer S); settings: ezetimibe used in Examples 1, 3 and 4, in µm (unit assumed)
Description: a) Particle Size Determination According to “Dry Powder Method”.
Typical Instrumental Conditions:
Pour the small volume sample in Drypowder Sampler unit. Set the feed rate & air pressure with the help of adjustable knob. And start the measurement until to get the obscuration between 15 and 30. Pass the laser beam through the sample cell to measure the particle size distribution and record the data into a histogram then report the results at 10%, 50% and 90% level of particles size distribution.
Note: Ensure the Laser power should be more than 60%.

[2] = Particle size determination according to Wet Method (Malvern laser diffraction); settings: dioctyl sulfosuccinate sodium salt in n-hexane
Description: b) Particle Size Determination According to “Wet Method”. Ezetimibe Samples PSD Measurement by Malvern Laser Diffraction
A Malvern Laser Diffraction instrument was used to characterize the particle size distribution of ezetimibe. A Mastersizer S model equipped with a small cell dispersion unit MSI with a digital dispersion unit controller was used. The measurement was done using range lens 300RF (working range […]), beam length: 2.40 mm and presentation 3NHE. In this case, a solution of dioctyl sulfosuccinate sodium salt in n-hexane was used as a dilution medium. The measurement was started after 1 minute of recirculation after suspension addition into measurement cell at speed rate 2000+−10 rpm. The suspension was prepared of ˜0.1 g sample in solution 0.065% dioctyl sulfosuccinate sodium salt in n-hexane by vortex for 10 seconds and by sonication for 30 seconds. According to the accepted rules of Good Manufacture Procedures, the sample of ezetimibe is preferably measured after a successful blank measurement (% obscuration NMT 0.1%) is performed.

[3] = Determination of specific surface area (BET, single point); settings: BET, single point; Sample no. 1 of example 5b)
Description: The specific surface area is determined by […] using BET calculation.
Specific surface area is measured by using the following Parameters: • Instrument: Pulse Chemisorbs 2700 (micromeritics) • Degassing: With out degassing • Sensitivity: No • Calculations: BET • Type: Single point system • Points: One • Sample cell: 6 cm^3 Procedure: • Sample no. 1 of example 5b) of known weight is taken in the sample transparent U shape glass tube. The sample is […] to remove all atmosphere at liquid nitrogen temperature (−196° C.). This is achieved by passing nitrogen through the sample tube, which is placed in a liquid nitrogen bath (−196° C.). The value divided by the weight of the catalyst/sample taken in the tube gives the surface area of the sample. BET Surface Area: • Surface area determination is an important factor in determining the catalyst performance, a method of assessing the efficiency of the catalyst support and promoter. […]
Is a straight line (in the range of P/P0:0.05-0.3) with slope (C−1)/(VmC) and intercept 1/VmC. By knowing these intercept and slope values calculated and further specific surface area can be calculated as follows Specific surface area (m^2/g)={[Vm×NA]/[22414×Wt]}×Am • Where, • Vm=monolayer volume in ml at STP • NA=Avogadro number • Wt=Weight of the catalyst • Am=mean cross sectional area of adsorbate molecule ([…] for N2

SMILES | d(0.1) [1] | d(0.5) [1] | d(0.9) [1] | d(0.1) [2] [μm] | d(0.5) [2] [μm] | d(0.9) [2] [μm] | Specific surface area [3] [m^2/gram]
O=C1[C@H](CC[C@H](O)c2ccc(F)cc2)[C@@H](c2ccc(O)cc2)N1c1ccc(F)cc1 [Sample 3 of Example 5a] | 3.349 | 6.356 | 11.429 |  |  |  | 
O=C1[C@H](CC[C@H](O)c2ccc(F)cc2)[C@@H](c2ccc(O)cc2)N1c1ccc(F)cc1 [Sample 4] |  |  |  | 2.02 | 4.11 | 8.21 | 
O=C1[C@H](CC[C@H](O)c2ccc(F)cc2)[C@@H](c2ccc(O)cc2)N1c1ccc(F)cc1 [Sample 5] |  |  |  | 2.70 | 6.76 | 16.47 | 
O=C1[C@H](CC[C@H](O)c2ccc(F)cc2)[C@@H](c2ccc(O)cc2)N1c1ccc(F)cc1 [ezetimibe, 1-(4-fluorophenyl)-3(R)-[3-(4-fluorophenyl)-3(S)-hydroxypropyl]-4(S)-(4-hydroxyphenyl)-2-azetidinone] |  |  |  |  |  |  | 1.24
